Reference: ChEMBL document CHEMBL4020753, “Inhibition of amyloid β aggregation and protective effect on SH-SY5Y cells by triterpenoid saponins from the cactus Polaskia chichipe” (Bioorg Med Chem, 2017)
Active and inactive are the calls of the source. No cut-off for these calls is given here.

Each compound was assayed against Amyloid-beta precursor protein (Homo sapiens) (UniProt P05067) (assay: Inhibition of amyloid beta (1 to 42) (unknown origin)-induced cytotoxicity in human SH-SY5Y cells assessed as increase in cell viability at 50 uM after 24 hrs by WST8 assay).
Format: cell-based

Chain of Amyloid-beta precursor protein (Homo sapiens) (P05067 whole entry): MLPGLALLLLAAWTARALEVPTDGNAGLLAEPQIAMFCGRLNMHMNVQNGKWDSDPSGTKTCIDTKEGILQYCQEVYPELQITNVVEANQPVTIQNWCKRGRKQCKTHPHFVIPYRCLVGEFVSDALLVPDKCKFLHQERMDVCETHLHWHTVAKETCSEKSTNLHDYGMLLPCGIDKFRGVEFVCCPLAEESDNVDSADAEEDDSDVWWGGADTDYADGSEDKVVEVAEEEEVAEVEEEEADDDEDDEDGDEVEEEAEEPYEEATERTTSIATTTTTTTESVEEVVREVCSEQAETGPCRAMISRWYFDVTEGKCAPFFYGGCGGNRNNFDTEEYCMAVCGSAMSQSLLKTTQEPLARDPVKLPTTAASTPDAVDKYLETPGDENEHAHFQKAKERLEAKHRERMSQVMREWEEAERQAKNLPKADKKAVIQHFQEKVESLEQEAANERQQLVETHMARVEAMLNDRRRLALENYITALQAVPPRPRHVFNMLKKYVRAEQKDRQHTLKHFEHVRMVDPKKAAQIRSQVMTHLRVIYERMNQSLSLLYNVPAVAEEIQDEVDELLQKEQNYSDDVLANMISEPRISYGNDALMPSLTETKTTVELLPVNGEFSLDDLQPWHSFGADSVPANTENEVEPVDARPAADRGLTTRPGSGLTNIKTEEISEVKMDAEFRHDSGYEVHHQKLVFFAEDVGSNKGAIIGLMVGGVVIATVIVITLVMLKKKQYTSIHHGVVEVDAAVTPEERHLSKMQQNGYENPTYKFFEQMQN

SMILES	protection from amyloid beta cytotoxicity (active/not active)
C[C@@H]1O[C@@H](OC(=O)[C@]23CCC(C)(C)C[C@H]2C2=CC[C@@H]4[C@@]5(C)CC[C@H](O[C@@H]6O[C@H](C(=O)O)[C@@H](O)[C@H](O)[C@H]6O[C@@H]6O[C@H](CO)[C@@H](O)[C@H](O)[C@H]6O[C@@H]6OC[C@@H](O)[C@H](O)[C@H]6O)C(C)(C)[C@@H]5CC[C@@]4(C)[C@]2(C)C[C@@H]3O)[C@H](O)[C@H](O)[C@H]1O	Active
C[C@@H]1O[C@@H](OC(=O)[C@]23CCC(C)(C)C[C@H]2C2=CC[C@@H]4[C@@]5(C)CC[C@H](O[C@@H]6O[C@H](C(=O)O)[C@@H](O)[C@H](O[C@@H]7O[C@@H](C)[C@H](O)[C@@H](O)[C@H]7O)[C@H]6O[C@@H]6O[C@H](CO)[C@@H](O)[C@H](O)[C@H]6O)C(C)(C)[C@@H]5CC[C@@]4(C)[C@]2(C)C[C@@H]3O)[C@H](O)[C@H](O)[C@H]1O	Active
CC1(C)CC[C@]2(C(=O)O[C@@H]3O[C@H](CO)[C@@H](O)[C@H](O)[C@H]3O)CC[C@]3(C)C(=CC[C@@H]4[C@@]5(C)CC[C@H](O[C@@H]6O[C@H](C(=O)O)[C@@H](O)[C@H](O)[C@H]6O[C@@H]6O[C@H](CO)[C@@H](O)[C@H](O)[C@H]6O[C@@H]6OC[C@@H](O)[C@H](O)[C@H]6O)C(C)(C)[C@@H]5CC[C@]43C)[C@@H]2C1	Active
C[C@@H]1O[C@@H](O[C@H]2[C@H](O)[C@@H](C(=O)O)O[C@@H](O[C@H]3CC[C@]4(C)[C@H]5CC=C6[C@@H]7CC(C)(C)CC[C@]7(C(=O)O[C@@H]7O[C@H](CO)[C@@H](O)[C@H](O)[C@H]7O)CC[C@@]6(C)[C@]5(C)CC[C@H]4C3(C)C)[C@@H]2O[C@@H]2O[C@H](CO)[C@@H](O)[C@H](O)[C@H]2O)[C@H](O)[C@H](O)[C@H]1O	Active
CC(=O)OC[C@]12[C@@H](OC(C)=O)CC(C)(C)C[C@H]1C1=CC[C@@H]3[C@@]4(C)CC[C@H](O[C@@H]5O[C@H](C(=O)O)[C@@H](O)[C@H](O)[C@H]5O[C@@H]5O[C@H](CO)[C@@H](O)[C@H](O)[C@H]5O[C@@H]5O[C@@H](C)[C@H](O)[C@@H](O)[C@H]5O)C(C)(C)[C@@H]4CC[C@@]3(C)[C@]1(C)C[C@@H]2OC(C)=O	inactive

The compounds below were run against Amyloid-beta precursor protein (Homo sapiens) (UniProt P05067) (assay: Inhibition of amyloid beta (1 to 42) (unknown origin)-induced cytotoxicity in human SH-SY5Y cells assessed as cell viability at 6.25 uM after 24 hrs by WST8 assay (reference value: 63.1 +/- 5.6%)).
Format: cell-based

SMILES	Activity [%]
O=C(OC[C@H]1O[C@@H](OC(=O)c2cc(O)c(O)c(OC(=O)c3cc(O)c(O)c(O)c3)c2)[C@H](OC(=O)c2cc(O)c(O)c(OC(=O)c3cc(O)c(O)c(O)c3)c2)[C@@H](OC(=O)c2cc(O)c(O)c(OC(=O)c3cc(O)c(O)c(O)c3)c2)[C@@H]1OC(=O)c1cc(O)c(O)c(OC(=O)c2cc(O)c(O)c(O)c2)c1)c1cc(O)c(O)c(OC(=O)c2cc(O)c(O)c(O)c2)c1	78.8

The compounds below were run against Amyloid-beta precursor protein (Homo sapiens) (UniProt P05067) (assay: Inhibition of amyloid beta (1 to 42) (unknown origin)-induced cytotoxicity in human SH-SY5Y cells assessed as cell viability at 50 uM after 24 hrs by WST8 assay (reference value: 63.1 +/- 5.6%)).
Format: cell-based

SMILES	Activity [%]
CC(=O)OC[C@]12[C@@H](OC(C)=O)CC(C)(C)C[C@H]1C1=CC[C@@H]3[C@@]4(C)CC[C@H](O[C@@H]5O[C@H](C(=O)O)[C@@H](O)[C@H](O)[C@H]5O[C@@H]5O[C@H](CO)[C@@H](O)[C@H](O)[C@H]5O[C@@H]5OC[C@@H](O)[C@H](O)[C@H]5O)C(C)(C)[C@@H]4CC[C@@]3(C)[C@]1(C)C[C@@H]2OC(C)=O	83.7
COC(=O)[C@H]1O[C@@H](O[C@H]2CC[C@]3(C)[C@H]4CC=C5[C@@H]6CC(C)(C)C[C@H](OC(C)=O)[C@]6(COC(C)=O)[C@@H](OC(C)=O)C[C@@]5(C)[C@]4(C)CC[C@H]3C2(C)C)[C@H](O[C@@H]2O[C@H](CO)[C@@H](O)[C@H](O)[C@H]2O[C@@H]2OC[C@@H](O)[C@H](O)[C@H]2O)[C@@H](O)[C@@H]1O	84.3
COC(=O)[C@H]1O[C@@H](O[C@H]2CC[C@]3(C)[C@H]4CC=C5[C@@H]6CC(C)(C)C[C@H](OC(C)=O)[C@]6(COC(C)=O)[C@@H](OC(C)=O)C[C@@]5(C)[C@]4(C)CC[C@H]3C2(C)C)[C@H](O[C@@H]2O[C@H](CO)[C@@H](O)[C@H](O)[C@H]2O)[C@@H](O[C@@H]2O[C@@H](C)[C@H](O)[C@@H](O)[C@H]2O)[C@@H]1O	79.2
CC(=O)OC[C@]12[C@@H](OC(C)=O)CC(C)(C)C[C@H]1C1=CC[C@@H]3[C@@]4(C)CC[C@H](O[C@@H]5O[C@H](C(=O)O)[C@@H](O)[C@H](O[C@@H]6O[C@@H](C)[C@H](O)[C@@H](O)[C@H]6O)[C@H]5O[C@@H]5O[C@H](CO)[C@@H](O)[C@H](O)[C@H]5O)C(C)(C)[C@@H]4CC[C@@]3(C)[C@]1(C)C[C@@H]2OC(C)=O	87.4

These compounds were tested against Amyloid-beta precursor protein (Homo sapiens) (UniProt P05067) (assay: Inhibition of amyloid beta (1 to 42) (unknown origin)-induced cytotoxicity in human SH-SY5Y cells assessed as increase in cell viability at 12.5 uM after 24 hrs by WST8 assay).
Format: cell-based

SMILES	inhibition
CC1(C)C[C@H](O)[C@]2(CO)[C@@H](O)C[C@]3(C)C(=CC[C@@H]4[C@@]5(C)CC[C@H](O)C(C)(C)[C@@H]5CC[C@]43C)[C@@H]2C1	inactive
CC(=O)OC[C@]12[C@@H](OC(C)=O)CC(C)(C)C[C@H]1C1=CC[C@@H]3[C@@]4(C)CC[C@H](O)C(C)(C)[C@@H]4CC[C@@]3(C)[C@]1(C)C[C@@H]2OC(C)=O	inactive
O=C(OC[C@H]1O[C@@H](OC(=O)c2cc(O)c(O)c(OC(=O)c3cc(O)c(O)c(O)c3)c2)[C@H](OC(=O)c2cc(O)c(O)c(OC(=O)c3cc(O)c(O)c(O)c3)c2)[C@@H](OC(=O)c2cc(O)c(O)c(OC(=O)c3cc(O)c(O)c(O)c3)c2)[C@@H]1OC(=O)c1cc(O)c(O)c(OC(=O)c2cc(O)c(O)c(O)c2)c1)c1cc(O)c(O)c(OC(=O)c2cc(O)c(O)c(O)c2)c1	inactive
CC1(C)CC[C@]2(C(=O)O)CC[C@]3(C)C(=CC[C@@H]4[C@@]5(C)CC[C@H](O)C(C)(C)[C@@H]5CC[C@]43C)[C@@H]2C1	inactive
CC1(C)CC[C@]2(C(=O)O)[C@@H](O)C[C@]3(C)C(=CC[C@@H]4[C@@]5(C)CC[C@H](O)C(C)(C)[C@@H]5CC[C@]43C)[C@@H]2C1	inactive
